In series [1] the test system is Ozark conventional soybean. The note with it: for Soybean Injury (%) 10 DAT / Soybean Injury (%) 35 DAT: fungicide-only seed. How it is done:
A field experiment was conducted in the summer of 2014 near Newport, Ark. to evaluate the effect of a soybean insecticide seed treatment, Cruiser Maxx, on herbicide injury to convention soybean. The conventional soybean variety Ozark was planted on 7-17-14 in plots measuring 7.5×20 feet in size. In each plot, half the drill rows were treated with Cruiser Maxx at 7 oz/cwt, and the other half were treated with only the fungicide portion of that treatment. Seeding rate was 125,000 seeds per acre. Seed were planted to a depth of 0.5 inches. Soil temperature at the time of planting and application of the PRE treatments was 62 degrees F.
Post emerge treatments included Roundup PowerMax (2 and 4 oz/A), Liberty (2 and 4 oz/A), dicamba (0.25 and 0.5 oz/A), 2,4-D (0.75 and 1.5 oz/A) and Permit at 0.5 and 1.0 oz/A applied at the third trifoliate stage. Herbicides were applied with a 4 nozzle boom calibrated to deliver 15 GPA using CO2 as a propellant.
Plots were visually rated for herbicide injury at 10 days after emergence and at 35 days after application of the POST treatments. The rating scale was 0 to 100 where 0=no injury and 100=complete death or desiccation of the plant. Means were separated using Fisher's protected LSD (0.05).

In series [2] the test system is cotton. The conditions noted are these: insecticide applied in-furrow; York et al. (1991); cited from earlier work.
For series [3], the system named is conventional rice (Roy J). Format: in vivo. How it is done: This experiment was conducted at a farm located just north of Lonoke, Ark. in the summers of 2013 and 2014. The soil texture is a silt loam with a pH of 6.3. Conventional rice (Roy J) was planted on Apr. 30, 2013 and May 20, 2014 with a Hege cone drill calibrated to deliver a seeding rate of 90 pounds (lbs)/Acre on 7.5-inch rows. Plot size was 5×25 feet. The study was conducted with a randomized complete block design having 4 replications.
Treatments consisted of seed treatment and herbicide combinations. […] The second seed treatment was considered the “nontreated seed” which actually received equivalent amounts of azoxystrobin, mefenoxam and fludioxonil as the treated seed but without the insecticide thiamethoxam.
The herbicide treatments were applied at the 2-4 If growth stage of rice with a CO2 backpack sprayer calibrated to deliver 10 gallons of spray solution per acre. Herbicide treatments included Roundup PowerMax (5.5 lb ai/gallon formulation) applied at 0, 1, 2, and 4.0 oz product/A and Newpath 2AS (2 lb ai/gallon formulation) applied at 0, 0.25, 0.5 and 1.0 oz product/A. The plot area was maintained weed free with conventional rice herbicides and the rice was grown according to University of Arkansas recommendations for soil fertility.
Data collected included: percent visual injury at 7, 21, and 42 days after treatment (DAT) on a scale of 0 to 100 with 0 being no injury and 100 being complete crop death; canopy heights at 68 DAT using a yard stick and 1 meter square piece of cardboard, percent rice heading at 107 DAT, percent moisture, and grain yield at harvest. Data were analyzed and LSD's generated at the p=0.05 level of significance using ARM 9.1.4.

Where [4] appears, read: POST at third trifoliate, averaged across two rates (Roundup PowerMax 2 and 4, dicamba 0.25 and 0.5, 2,4-D 0.75 and 1.5, Permit 0.5 and 1.0 oz/A), Treated soybean (Cruiser Maxx 7 oz/cwt).
The mark [5] stands for this setting: POST at third trifoliate, averaged across two rates (Roundup PowerMax 2 and 4, dicamba 0.25 and 0.5, 2,4-D 0.75 and 1.5, Permit 0.5 and 1.0 oz/A).
The mark [6] stands for this setting: PRE, (T) = Treated soybean (Cruiser Maxx 7 oz/cwt), Metribuzin 0.671 lb/A, Dual Magnum 2.0 pts/A, Zidua 3.5 oz/A, Valor 2.0 oz/A, mixes at same rates.
[7] abbreviates: PRE, Metribuzin 0.671 lb/A, Dual Magnum 2.0 pts/A, Zidua 3.5 oz/A, Valor 2.0 oz/A, mixes at same rates.

The structures appear in SMILES notation. Read-outs that look alike come from different tables or passages of the source.

For `O=C(O)COc1ccc(Cl)cc1Cl` [2,4-D], in series [1] (setting [4]), the “Soybean Injury (%) 10 DAT (T)” value worked out at 15% and the “Soybean Injury (%) 35 DAT (T)” value was 5%. In series [1] (setting [5]), the “Soybean Injury (%) 10 DAT” value was determined as 15% and the “Soybean Injury (%) 35 DAT” value amounted to 5%.

Take `COc1c(Cl)ccc(Cl)c1C(=O)O` [Dicamba, dicamba]: in series [1] (setting [4]), the “Soybean Injury (%) 10 DAT (T)” value is 60% and the “Soybean Injury (%) 35 DAT (T)” value is given as 30%. Besides, in series [1] (setting [5]), the “Soybean Injury (%) 10 DAT” value worked out at 60% and the “Soybean Injury (%) 35 DAT” value stood at 30%.

On to `CSc1nnc(C(C)(C)C)c(=O)n1N` [Metribuzin, metribuzin], for which, in series [1] (setting [6]), the “Soybean Injury (%) 10 DAT (T)” value is given as 0% and the “Soybean Injury (%) 35 DAT (T)” value is on record as 0%. Also, in series [1] (setting [7]), the “Soybean Injury (%) 10 DAT” value came to 0% and the “Soybean Injury (%) 35 DAT” value is 0%.

Consider `CCOP(=S)(OCC)SCCSCC` [disulfoton], for which the “clomazone injury to cotton” value in series [2] was “greatly reduced”.

On to `CCOP(=S)(OCC)SCSCC` [phorate], for which, in series [2], the “clomazone injury to cotton” value is “greatly reduced”.

Consider `CN1COCN(Cc2cnc(Cl)s2)/C1=N\[N+](=O)[O-]` [thiamethoxam], for which, in series [3] (107 DAT, all plots that received the insecticide in the seed treatment), the heading is recorded as 95-100%. For the same compound, the “yield higher for treated seed plots versus untreated or fungicide only plots” value in series [3] (2013, Newpath at either 0.25 or 0.5 oz/A) was 100 bu/A. Moreover, in series [3] (2013, Roundup 4.0 oz/A), the “yield improved by addition of a seed treatment that included the insecticide” value is “over 60 bushels”.

These data come from patent publication US11219216B2, “Method of improving tolerance of plants to herbicides using seed insecticide treatments” (priority 2015, dated 2022).
